The record followed here is patent publication US20230310534A1, “QUENCHERS THAT SLOW, DECREASE, OR INHIBIT THE FORMATION OF CHEMIEXCITATION-INDUCED CYCLOBUTANE PYRIMIDINE DIMERS” (L'OREAL, priority 2017, published 2023).

Holding throughout (type): biochemical
The nature of experiment [1]: Melanin oxidation assay (peroxynitrite/melanin chemiluminescence quenching). The note with it: peroxynitrite, melanin and DBAS in DMSO; measured at 150 seconds and 500 seconds. The text has this: An easy and fast assay was developed to measure quenching of chemiluminescence from the triplet carbonyl of a cleaved dioxetane that was created when peroxynitrite (ONOO—) reacted with melanin. As such, it measured both triplet quenching and any scavenging activity that prevented the chemiexcitation reaction from starting. DMSO was used as a solvent for the entire reaction, DBAS to enhance the luminescence and a liquid scintillation counter set to single-photon mode to detect the luminescence signal.
In this assay, peroxynitrite, melanin, and DBAS were incubated in DMSO in the absence or presence of test agents, and light emission quenching (%) was measured at 150 seconds and 500 seconds (FIG. 1).

Experiment [2] in a line: Peroxynitrite radical absorbance capacity test, dihydrorhodamine 123 indicator. Conditions: activity grade 0-4. As to the method: Peroxynitrite radical absorbance capacity tests were conducted to measure the capacity of an antioxidant material to quench peroxynitrite. Dihydrorhodamine 123 was used as an indicator of peroxynitrite in tubo for peroxynitrite radical absorbance capacity tests with Varioskan Flush. […]

A short description of experiment [3]: Superoxide radical absorbance capacity (SORAC) test, WST-1 probe. The note with it: activity grade 0-4. As to the method: Superoxide radical absorbance capacity tests were conducted to measure the capacity of an antioxidant material to dismutate superoxide anion. The Varioskan Flush was employed to measure the superoxide dismutase-catalyzed dismutation of the superoxide anion in the presence of the absorbance probe, water-soluble tetrazolium salt (WST-1). The superoxide radical antioxidant (SORAC) assay is based on an inhibition assay and is suitable for evaluating superoxide dismutase or superoxide dismutase-like activities in samples.
In general terms: Formazan colour is commonly taken as a measure of viable cells.

In the case of `COc1cc(/C=C/C(=O)O)ccc1O` [Ferulic Acid], the “light emission quenching (hit)” value in experiment [1] is listed as “showed a quenching effect”. Also, the Anti-peroxynitrite in experiment [2] came out at 4. In experiment [3], this compound had an Anti-superoxide of 1.
Taken in the same sequence, the figures for `O=C(O[C@@H]1Cc2c(O)cc(O)cc2O[C@@H]1c1cc(O)c(O)c(O)c1)c1cc(O)c(O)c(O)c1` [Epigallocatechin Gallate] were “showed a quenching effect”, 4 and 4.
As for `O=C(O)c1cccc(C(=O)O)n1` [dipicolinic acid], in experiment [1], the “light emission quenching (hit)” value is on record as “showed a quenching effect”.
As to `O=c1oc2c(O)c(O)cc3c(=O)oc4c(O)c(O)cc1c4c23` [Ellagic acid], in experiment [1], the “light emission quenching (hit)” value is reported as “showed a quenching effect”. Further, the Anti-peroxynitrite in experiment [2] was found to be 4. The compound also displayed an Anti-superoxide in experiment [3] of 2.
On to `C/C=C/C=C/C(=O)O` [sorbic acid], for which the “light emission quenching (hit)” value in experiment [1] was “showed a quenching effect”.
Same read-out and setting: with `CC1=C(/C=C/C(C)=C/C=C/C(C)=C/C=C/C=C(C)/C=C/C=C(C)/C=C/C2=C(C)CCCC2(C)C)C(C)(C)CCC1` [beta-carotene] the entry was “showed a quenching effect”; with `CC(C)=CCC/C(C)=C/CC/C(C)=C/CC/C=C(\C)CC/C=C(\C)CCC=C(C)C` [squalene], “showed a quenching effect”.
